Assay results published in ChEMBL document CHEMBL5223085, “Agonist Lock Touched and Untouched Retinoic Acid Receptor-Related Orphan Receptor-γt (RORγt) Inverse Agonists: Classification Based on the Molecular Mechanisms of Action” (J Med Chem, 2021).

Tests used:
[1] = molecular target: T1, Nuclear receptor ROR-gamma (Homo sapiens, UniProt P51449); test: Inverse agonist activity against human RORgammat by FRET assay
T1 sequence (P51449 whole entry): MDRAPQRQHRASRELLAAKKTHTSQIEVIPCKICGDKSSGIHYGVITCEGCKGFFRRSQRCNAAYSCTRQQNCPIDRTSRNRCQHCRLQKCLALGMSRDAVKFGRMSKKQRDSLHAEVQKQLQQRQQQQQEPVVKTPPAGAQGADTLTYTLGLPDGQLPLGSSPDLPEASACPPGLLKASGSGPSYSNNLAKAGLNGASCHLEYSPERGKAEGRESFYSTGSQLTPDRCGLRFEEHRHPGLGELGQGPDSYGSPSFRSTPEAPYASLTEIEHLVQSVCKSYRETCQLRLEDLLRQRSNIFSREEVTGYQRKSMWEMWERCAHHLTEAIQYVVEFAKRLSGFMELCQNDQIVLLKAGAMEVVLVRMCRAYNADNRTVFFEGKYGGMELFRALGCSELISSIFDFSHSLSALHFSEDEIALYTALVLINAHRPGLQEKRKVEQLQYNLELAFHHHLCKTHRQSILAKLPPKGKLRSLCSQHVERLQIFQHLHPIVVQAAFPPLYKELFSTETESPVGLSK

[2] = molecular target: T1, Nuclear receptor ROR-gamma; test: Displacement of 25-[26,27-3H2]-hydroxycholesterol from RORgammat (unknown origin) assessed as inhibition constant by scintillation proximity assay

Row | IC50 [1] [nM] | Ki [2] [nM] | Compound
1 | 5 |  | Cc1ccc([C@@H](NC(=O)Cc2ccc3oc(C(O)c4c(C)noc4C)cc3c2)c2ccccc2)c(C)c1 (stereo partly drawn)
2 | 3 |  | Cc1ccc(C(NC(=O)Cc2ccc(OCc3c(C)noc3C)cc2)c2ccccc2)c(C)c1 (stereo not drawn)
3 |  | 3.7 | CCS(=O)(=O)c1ccc(CC(=O)Nc2cnc3c(c2)CN(C[C@H]2CC[C@H](C(F)(F)F)CC2)[C@H]3C(C)C)nc1
